Reference: US20100168165A1, “METHOD OF TREATING DISEASE INVOLVING MYELIN AND/OR AXONAL LOSS” (The United States of America, as represented by the …, priority 2007, published 2010)
“And” between values parts separate entries of the source, which are not always exact repeats. Equal entries are not always repeated.

Legend:
[1] = tested on: actively induced chronic progressive EAE; assay: Actively induced chronic progressive EAE (MOG35-55 immunization), Tempol food from 14 days before immunization; format: in vivo, SJL mice
Procedure: (§1) SJL mice are placed on Tempol-containing food two weeks prior to the initiation of experimental autoimmune encephalomyelitis (EAE) either by active immunization with myelin antigens or the transfer of activated encephalitogenic T cells. Animals receive bacon-flavored control food and Tempol-containing food ad libitum (Bio-Serv, Frenchtown, N.J.). The composition of the control food and Tempol-containing food is identical with exception to the addition of Tempol at a concentration of 10 mg/gram of food (Mitchell et al., Free Radic. Biol. Med., 34: 93-102 (2003)). Bacon flavored food is used to mask the taste of Tempol. All experiments with animals are carried out according to protocols approved by and on file with the National Institute of Neurological Disorders and Stoke (NINDS) Animal Care and Use Committee (ACUC).
(§2) For the EAE induction, all animals are female, 8-10 weeks of age at time of myelin protein immunization. Animals are immunized for active EAE induction with 200 μg of MOG35-55 peptide in 4 mg/ml H37Ra Mycobacterium/IFA with 200 ng pertussis toxin delivered intraperitoneally (IP) on days 0 and 2. For passive EAE induction, SJL animals are immunized with 75 μg of PLP139-151 peptide in 1 mg/ml H37Ra Mycobacterium/IFA (Difco, Detroit, Mich.). Ten days later, axillary and inguinal lymph nodes are removed and placed into culture with 5 μg/ml of PLP139-151 peptide. After 3 days, activated T cells are counted and 2 million blasted T cells are transferred IP to each SJL recipient mouse.
Mice are placed on control- or Tempol-containing food 14 days (T-14) prior to immunization with MOG peptide for EAE induction (day 0=date of immunization). Mice are blindly evaluated for onset of disease and clinical scores are assigned following examination as follows: 0=no clinical signs; 1=flaccid tail; 2=paresis of one or both hind legs; 3=paralysis of one or both hind legs; 4=quadriparesis or quadriparalysis; 5=moribund. The cumulative score represents the mean of the summation of single scores recorded in each mouse over days 0 (day of immunization) to day 30 post disease induction. In this study, mice that are fed Tempol generate myelin antigen-specific T cells which are unable to cause paralytic disease in immunized mice.

[2] = tested on: passively induced chronic progressive EAE; assay: Passively induced chronic progressive EAE (transfer of PLP139-151-activated encephalitogenic T cells); format: in vivo, SJL mice
Procedure: as §1, §2
Mice are placed on control- or Tempol-containing food 14 days (T-14) prior to receipt of encephalitogenic T cells (day 0=date of T cell transfer). Mice are blindly evaluated for onset of disease and clinical scores were assigned following examination as follows: 0=no clinical signs; 1=flaccid tail; 2=paresis of one or both hind legs; 3=paralysis of one or both hind legs; 4=quadriparesis or quadriparalysis; 5=moribund. The cumulative score represents the mean of the summation of single scores recorded in each mouse over days 0 (day of T cell transfer) to day 48 post disease induction. PLP-specific T cells are capable of causing severe paralytic disease in the brain and spinal cord of control fed mice, yet Tempol-fed mice are protected showing decreased incidence of disease as well as reduced severity.
SJL animals are induced for disease by the passive transfer of encephalitogenic T cells as described in Example 1. Animals are placed on either Tempol or control feed at either (i) 2 weeks prior to transfer, (ii) at the time of transfer, or (iii) at the onset of disease.

MOG-induced active EAE = assay: MOG-induced active EAE, switched to Tempol feed after onset of clinical signs; format: in vivo, mice; conditions: feed switched once 60% of animals show at least grade 1; FIG. 4
Procedure: as §2

neurofilament H = assay: Spinal cord neurofilament H in passive EAE animals; format: in vivo, SJL mice; set-up: cumulative disease score / peak disease score: scale not given here
Procedure: SJL animals are induced for disease by the passive transfer of encephalitogenic T cells as described in Example 1. Animals are placed on either Tempol or control feed. The spinal cords of the animals are analyzed 90 days post transfer.
Neurofilament staining is representative of the presence of axons. During autoimmune or demyelinating processes, the loss of neurofilament H has been associated with axonal loss.

[3] = tested on: edema associated with inflammation and tissue damage; assay: Spinal cord T2 relaxation times (edema) in passive EAE; format: in vivo, SJL mice
Procedure: SJL animals are induced for disease by the passive transfer of encephalitogenic T cells as described in Example 1. Animals are placed on either Tempol or control feed. In a spinal cord histogram, T2 relaxation times typically increase due to inflammation and edema during CNS autoimmunity/disease during EAE. […] In the control-fed animals, the spinal cord T2 relaxation times shifted to higher values due to edema and inflammation.
The average T2 relaxation times are measured for SJL passively-induced EAE animals on Tempol 2 weeks prior to T cell transfer. Five scans are collected per animal, which are pooled from: 2 control animals (10 total), 4 control-fed EAE animals (20 total), and 4 Tempol-fed EAE animals (20 total).

inflammatory infiltrates = assay: Inflammatory infiltrate scoring of spinal cords at peak disease, passive EAE; format: in vivo, mice; conditions: 5 animals per group, 11 cord levels, scale 1-5; FIG. 8
Procedure: Animals induced passively for EAE with PLP-specific T cells are examined at peak disease for assessment of inflammatory infiltrates. The spinal cords from 5 animals per group (control-fed and Tempol-fed) are examined at 11 levels spanning the entire cord and assessed according to the following scale and an average inflammatory score is calculated per animal. Degree of inflammation: 1=1-2 mild infiltrates, little to no infiltration; 2=3+ infiltrates, +/− infiltration; 3=1-2 moderate infiltrates, 1-2 mild little/mild infiltrates; 4=3+ moderate infiltrates, or 1 severe/broad with or without mild infiltrates, extensive infiltration to parenchyma present; 5=2+ severe/broad parenchyma infiltrative, with or without additional mild/moderate associated infiltrates to parenchyma.

leukocytic infiltration = assay: Leukocyte count by flow cytometry in actively induced EAE; format: in vivo, C57BL/6J mice
Source text: Animals are placed on either Tempol or control feed, and the number of leukocytes are counted via flow cytometry.

myelin-specific T cells = assay: Spleen recall proliferation to myelin antigen 20 days after immunization; format: in vivo; conditions: three animals per group, pooled; FIG. 9
Procedure: Animals on control or Tempol feed are immunized with a myelin antigen, and the spleens are tested 20 days later for recall to antigen. Three animals per group are tested and the results are pooled (FIG. 9).

[4] = clinical score 0-5, Tempol food from T-14, n = 10
[5] = individual animals, passive EAE

CC1(C)CC(O)CC(C)(C)N1[O] [Tempol, 4-hydroxy-2,2,6,6-tetramethylpiperidine-1-oxyl]
Effect on incidence and severity of EAE ([1]; Table 1 and FIG. 1): reduces the incidence and severity | Incidence of disease ([1]; Tempol 10 mg/gram of food ad libitum from 14 days prior to MOG immunization, n = 10): .30 | Average peak disease severity [1, 4]: 0.83 | Average cumulative disease score ([1]; clinical score 0-5 summed over day 0 to day 30, Tempol food from T-14, n = 10): 2.05 | Effect on incidence and severity of EAE ([2]; Table 2 and FIG. 2): reduces the incidence and severity | Incidence of disease ([2]; Tempol 10 mg/gram of food from 14 days prior to T cell transfer, n = 10): .70 | Average peak disease severity [2, 4]: 2.81 | Average cumulative disease score ([2]; clinical score 0-5 summed over day 0 to day 48, Tempol food from T-14, n = 10): 33.9 | Clinical sign at peak disease ([2]; control animals: complete hind limb paralysis with forelimb weakness): hind limb paresis | Severity of clinical symptoms and cumulative disease score by time of administration ([2]; feed started 2 weeks prior to transfer, at transfer, or at disease onset, FIG. 3): reduces the severity of clinical symptoms and the cumulative disease score regardless of the time of administration | Time after feed administration until disease severity drops off (MOG-induced active EAE): ≤ 2 days | cumulative disease score (neurofilament H; [5]): 14 and 103.25 and 83.75 and 105.25 and 28.25 and 83 and 0.5 and 87.25 and 28.75 | peak disease score (neurofilament H; [5]): 2.25 (2×) and 3.5 (4×) and 2.75 and 2.5 and 0 | average (relative amount of spinal cord neurofilament H) (neurofilament H; individual animals, spinal cords analyzed 90 days post transfer): 0.9652 and 0.4487 and 0.7 and 0.3589 and 0.8499 and 0.3415 and 0.9171 and 0.9553 and 1.104 | Preservation of neurofilament H (neurofilament H; versus control feed, FIG. 5 and Table 3): greater preservation of neurofilament H | Edema and inflammation by average T2 relaxation times ([3]; Tempol 2 weeks prior to T cell transfer, to levels observed in healthy animals, FIG. 7): limits (e.g., reduces) the edema and inflammation | T2 relaxation times, spinal cord histogram ([3]; versus control-fed EAE animals): lower T2 relaxation times | Inflammatory infiltrates at peak disease (inflammatory infiltrates): limits the inflammatory infiltrates | Inflammatory infiltrates at peak disease (leukocytic infiltration; actively induced EAE, Table 4): limits the inflammatory infiltrates | Microglial activation (upregulation of MHC class II expression) (leukocytic infiltration; compared to animals on control feed): reduces the degree of microglial activation | % B cell (leukocytic infiltration; flow cytometry, peak disease): 1.3% and 2.8% | % CD3 (leukocytic infiltration; flow cytometry, peak disease): 11.1% and 11.2% | % mac/gran (leukocytic infiltration; flow cytometry, peak disease): 10.1% and 20.2% | % microglia (leukocytic infiltration; flow cytometry, peak disease): 68.5% and 55.6% | % total CD45 hi (leukocytic infiltration; flow cytometry, peak disease): 21.0% and 33.8% | CD4:CD8 ratio (leukocytic infiltration; flow cytometry, peak disease): 1.7 and 1.5 | Cell # (leukocytic infiltration; flow cytometry, peak disease): 1.0 ×10^6 | Generation of myelin-specific T cells by proliferative responses (myelin-specific T cells): does not reduce the generation of myelin-specific T cells
